Our source for the IC50 values is patent US5294619A, “Arylpiperidine derivatives” (Pfizer Inc., priority 1992, dated 1994).

A word on the IC50: it is the concentration at which inhibition is half-maximal. A higher IC50 goes with weaker potency in that assay.

T1 sequence (P61169 whole entry): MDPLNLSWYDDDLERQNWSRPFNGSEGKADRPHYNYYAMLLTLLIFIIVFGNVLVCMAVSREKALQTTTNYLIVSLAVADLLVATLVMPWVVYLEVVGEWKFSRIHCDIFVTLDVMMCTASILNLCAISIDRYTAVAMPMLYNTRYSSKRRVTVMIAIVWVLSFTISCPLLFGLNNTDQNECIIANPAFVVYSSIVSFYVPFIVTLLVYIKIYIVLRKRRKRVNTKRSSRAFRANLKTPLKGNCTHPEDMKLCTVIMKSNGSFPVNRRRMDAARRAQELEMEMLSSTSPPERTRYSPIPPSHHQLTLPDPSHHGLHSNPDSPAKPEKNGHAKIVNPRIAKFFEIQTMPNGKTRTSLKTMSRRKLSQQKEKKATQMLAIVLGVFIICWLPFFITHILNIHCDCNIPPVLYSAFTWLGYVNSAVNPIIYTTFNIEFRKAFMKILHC

The experiment concerns the target T1, dopamine-2 receptor (Rattus norvegicus, UniProt P61169).
T1 construct: The caudate and mesolimbic areas were then homogenized; from tissue; host or cells: rat brain, caudate and mesolimbic areas (washed membrane homogenate)
The experiment can be described thus: 3[H]-N-propylnorapomorphine binding assay (rat caudate and mesolimbic brain tissue). Particulars: inhibition of 3[H]-N-propylnorapomorphine binding, 0.32 nM radioligand, pH 7.5, 25° C., 30 minutes. Here is the method: The anti-psychotic activity of the compounds of the present invention as neuroleptic agents for the control of various psychotic disorders is determined primarily by a study of their ability to suppress ^3 [H]-N-propylnorapormorphine (dopamine-2 receptor) uptake in the brain of rats (in vitro). This study is carried out in a standard ^3 [H]-N-propylnorapomorphine binding assay test, where the amount of radioactivity is determined by liquid scintillation counting. In this way, the compounds can be rated in terms of their ability to reduce the amount of radioactivity caused by the aforesaid dopamine-2-receptor.
The N-substituted arylpiperidine compounds of Examples 1-18, respectively, were tested for anti-psychotic activity in rats, using the standard ^3 [H]-N-propylnorapomorphine binding assay test, according to the general procedure described by K. Fuxe et al., as reported in the European Journal of Pharmacology, Vol. 100, p. 127 (1984).
In this procedure, the brain was quickly removed from a decapitated rat and the caudate and mesolimbic areas were subsequently dissected therefrom to afford an average of ca. 150-180 mg. of material per rat. The caudate and mesolimbic areas were then homogenized on admixture with 40 volumes of ice-cold 15 mM Tris (i.e., tromethamine which is 2-amino-2-hydroxymethyl-1,3-propanediol) hydrochloride buffer having a pH of 7.5, which also contained 1.0 mM ethylenediaminetetraacetic acid (EDTA) and 0.01% ascorbic acid. The homogenate was next centrifuged at 35,000×G for a period of ten minutes. The supernatant liquid was then decanted, and the resulting pellet subsequently resuspended in 40 volumes of fresh, ice-cold Tris-EDTA buffer and homogenized, followed by incubation 37° C. for a period of ten minutes. The resulting homogenate was next re-centrifuged at 35,000×G for another ten-minute period, followed by decantation of the supernatant liquid. The pellet obtained in this manner was then resuspended again in the Tris-EDTA buffer, followed by a repeat of the centrifugation and decantation steps, with the final pellet being resuspended once more in 15 mM Tris-EDTA buffer at a concentration level of 11.25 mg./ml. This completed the production of the tissue preparation phase of the overall procedure.
. The final reaction mixture was next vortexed and incubated at 25° C. for a period of 30 minutes (using a 25° C. water bath for these purposes). […] Upon completion of the reaction step, the incubation period was terminated by subjecting the tubes to rapid filtration under vacuum through fiber filters, followed by two rinses with 5 ml. of ice-cold 15 mM Tris-EDTA buffer for each tube. The filters thus obtained were next soaked in 10 ml. of Aquasol 2 (a registered trademark name of New England Nuclear Corporation of Boston, Massachusetts for a liquid scintillation counter material), vortexed and then allowed to stand overnight (ca. 18 hours) at ambient temperatures in order to extract radioactivity. The amount of radioactivity was determined by liquid scintillation counting, using a Beta counter at 53% counting efficiency. The IC50 values were thereafter calculated by using standard statistical methods. On this basis, the ability of each test compound to reduce the amount of radioactivity caused by ^3 [H]-N-propylnorapomorphine is given as an IC50 value, expressed in terms of nM units.
In this way, the N-substituted arylpiperidine compounds of formula I that were reported as final products in Examples 1-18, respectively, were all assayed and found to be capable of inhibiting ^3 [H]-N-propylnorapomorphine binding at its dopamine-2 receptor site at the previously-indicated dose level tested. The results obtained in this manner are shown below in the following table, where the binding assay for each compound is reported in terms of the previously-discussed IC50 value: […]
Molecule `COc1ccccc1C1CCN(CCc2ccc3c(c2)CC(=O)N3)CC1` [Example 16, 5-{2-[4-(2-methoxyphenyl)-1-piperidinyl]ethyl}oxindole] came in with an IC50 of 52.2 nM.

In turn, `COc1ccccc1C1CCN(CCc2ccc(-c3csc(N)n3)cc2)CC1` [Example 11, 4-{{4-{2-[4-(2-methoxyphenyl)-1-piperidinyl]ethyl}-phenyl}}-thiazole-2-amine] returned an IC50 of 36.3 nM.

In turn, `O=C1Cc2cc(CCN3CCCC(c4cccc5ccccc45)C3)ccc2N1` (stereo not drawn) [Example 5, 5-{2-[3-(1-naphthyl)-1-piperidinyl]ethyl}oxindole] showed an IC50 of 169 nM. This IC50 lies about 4.7-fold higher than the previous one.

Molecule `Oc1ccc(CCN2CCC(c3ccccc3)CC2)cc1` [Example 8, 4-[2-(4-phenyl-1-piperidinyl)ethyl]phenol] displayed an IC50 of 362 nM.

Consider `Cc1nc2ccccn2c(=O)c1CCN1CCC(c2cccc3ccccc23)CC1` [Example 1, 3-{2-[4-(1-naphthyl)-piperidinyl]ethyl}-2-methyl-4H-pyrido[1,2-a]-pyrimidine-4-one], for which the IC50 stood at 114 nM.

Regarding `COc1ccccc1C1CCCN(CCCCN2C(=O)C3CCC(C)(C2=O)C3(C)C)C1` (stereo not drawn) [Example 18, 3-{4-[3-(2-methoxyphenyl)-1-piperidinyl]-n-butyl]-1,8,8-trimethyl-3-azabicyclo[3.2.1]octane-2,4-dione], the IC50 came to 679 nM.

`FC(F)(F)c1cccc(C2CCN(CCOc3ccccc3)CC2)c1` [Example 10, 1-{2-[4-(3-trifluoromethylphenyl)-1-piperidinyl]ethyloxy}benzene] registered a 50% inhibitory concentration (IC50) of 210 nM.

As to `CC12CCC(C(=O)N(CCCCN3CCCC(c4cccc5ccccc45)C3)C1=O)C2(C)C` (stereo not drawn) [Example 7], the IC50 was 1110 nM.

`Nc1nc(-c2ccc(CCN3CCC(c4cccc5ccccc45)CC3)cc2)cs1` [Example 2, 4-{{4-{2-[4-(1-naphthyl)piperidinyl]ethyl}phenyl}}thiazole-2-amine] had an IC50 of 196 nM.

`COc1ccccc1C1CCN(CCCCc2ccc(-c3csc(N)n3)cc2)CC1` [Example 14, 4-{{4-{4-[4-(2-methoxyphenyl)-1-piperidinyl]-n-butyl}-phenyl}}thiazole-2-amine] returned an IC50 of 51.6 nM.

`Oc1ccc(CCN2CCC(c3cccc(C(F)(F)F)c3)CC2)cc1` [Example 9, 4-{2-[4-(3-trifluoromethylphenyl)-piperidinyl]ethyl}phenol] yielded an IC50 of 601 nM.

In turn, `COc1ccccc1C1CCCN(CCCCN2C(=O)CC3(CCCC3)CC2=O)C1` (stereo not drawn) [Example 15, 8-{4-[3-(2-methoxyphenyl)-1-piperidinyl]-n-butyl}-8-azaspiro[4.5]decane-7,9-dione] returned an IC50 of 531 nM.

The molecule `COc1ccccc1C1CCCN(CCc2ccc(-c3csc(N)n3)cc2)C1` (stereo not drawn) [Example 12, 4-{{4-{2-[3-(2-methoxyphenyl)-1-piperidinyl]ethyl}phenyl}}-thiazole-2-amine] registered an IC50 of 150 nM.

`COc1ccccc1C1CCN(CCCCN2C(=O)C3CCC(C)(C2=O)C3(C)C)CC1` (stereo not drawn) [Example 17] gave an IC50 of 51.5 nM.

Regarding `O=C1Cc2cc(CCN3CCC(c4cccc5ccccc45)CC3)ccc2N1` [Example 4, 5-{2-[4-(1-naphthyl)-1-piperidinyl]ethyl}-oxindole], the IC50 amounted to 184 nM. Compared with the last molecule, the IC50 is about 3.6-fold higher.

As for `O=C1CC2(CCCC2)CC(=O)N1CCCCN1CCC(c2cccc3ccccc23)CC1` [Example 3, 8-{4-[4-(1-naphthyl)-1-piperidinyl]-butyl}-8-azaspiro[4.5]decane-7,9-dione], the IC50 turned out to be 239 nM. The IC50 values of the last two molecules are within 1.5-fold of each other.

For `CC12CCC(C(=O)N(CCCCN3CCC(c4cccc5ccccc45)CC3)C1=O)C2(C)C` (stereo not drawn) [Example 6, 3-{4-[4-(1-naphthyl)-1-piperidinyl]-n-butyl}-1,8,8-trimethyl-3-azabicyclo[3.2.1]octane-2,4-dione], the IC50 amounted to 169 nM.

The molecule `COc1ccccc1C1CCCN(CCCCc2ccc(-c3csc(N)n3)cc2)C1` (stereo not drawn) [Example 13, 4-{{4-{4-[3-(2-methoxyphenyl)-1-piperidinyl]n-butyl}-phenyl}}thiazole-2amine] had an IC50 of 247 nM.
